From patent publication US11442059B2, “Method for treating a chronic itch condition by administering small molecule MrgprX4 antagonists” (The Johns Hopkins University, priority 2017, dated 2022)
One block for each molecule: values may come before it. Non-standard residues stand in square brackets, D forms with d. Residues, ends and D or L forms follow the SMILES beside them. *: point of attachment. Boc = CC(C)(C)OC(=O)*; OBn = c1ccc(CO*)cc1; For = O=C*

Key:
mice [1] = tested on: mice
MRGPRX4 [2] = target: T1, MRGPRX4 (Homo sapiens, UniProt Q96LA9); experiment: Fura 2-AM calcium imaging, EC50 determinations, MRGPRX4 HEK293 cells; format: cell-based; parameters: expressed in transfected cells; whole cells or crude membrane fraction; details: for activation of MRGPRX4-expressing cells (calcium): concentration-Ca2+ response, FIG. 24I
Method: (§1) Cells were imaged in calcium imaging buffer (CIB; 10 mM HEPES, 1.2 mM NaHCO3, 130 mM NaCl, 3 mM KCl, 2.5 mM CaCl2, 0.6 mM MgCl2, 20 mM glucose, and 20 mM sucrose at pH 7.4 and 290-300 mOsm). To monitor changes in intracellular [Ca^2+] ([Ca^2+]i), cells were loaded with either Fura 2-AM (HEK293 cells) or Fluo 4-AM (DRG neurons and mast cells) for 30 min in the dark at 37° C. in CIB just prior to imaging. With Fura 2-AM, emission at 510 nm was monitored from excitation at both 340 nm and 380 nm. With Fluo 4-AM, emission at 520 nm was monitored from excitation at 488 nm. Cells were identified as responding if the intracellular [Ca^2+] rose by either 50% compared to baseline or 50% compared to the [Ca^2+]i change assayed during addition of 50 mM KCl (neurons only). Damaged, detached, high-baseline, and motion-activated cells were excluded from analysis.
(§2) In initial screens, HEK293 cells stably expressing the murine G-protein alpha-subunit Gα15, a unique Gα protein that non-selectively couples a large variety of GPCRs to phospholipase C^30, were plated on poly-D-lysine-coated coverslips and transiently transfected with constructs encoding the MRGRPR of interest. 12-24 h later, cells were loaded with the Fura 2-AM. Unless otherwise specified, compounds were perfused into the imaging chamber for approximately thirty seconds after a baseline period was established. Response was then monitored at 5 s intervals for an additional 60 s.
HEK293 cells stably expressing either MRGPRA1, MRGPRX4, and MRGRPC11 were seeded in poly-D-lysine-coated 96-well plates at 10,000 cells/well. Cells were loaded with Fura 2-AM, washed twice, and maintained in CIB. Haem metabolites were freshly dissolved in DMSO in dim light and then diluted into a buffer comprised of 20 mM Tris and 150 mM NaCl at pH 8.8. Potential changes in pH were evaluated prior to each experiment. EC50 values were determined from dose-responses performed in triplicate, repeated 2-4 times. […]

MrgprA1 [3] = target: T2, MrgprA1 (Mus musculus, UniProt Q91WW5); experiment: Fura 2-AM calcium imaging, EC50 and IC50 determinations, MRGPRA1 HEK293 cells; format: cell-based; details: for activation of MRGPRA1-expressing cells (calcium): concentration-Ca2+ response, FIG. 24D
T2 construct: expressed in transfected cells; whole cells or crude membrane fraction
T2 sequence (Q91WW5 1-304): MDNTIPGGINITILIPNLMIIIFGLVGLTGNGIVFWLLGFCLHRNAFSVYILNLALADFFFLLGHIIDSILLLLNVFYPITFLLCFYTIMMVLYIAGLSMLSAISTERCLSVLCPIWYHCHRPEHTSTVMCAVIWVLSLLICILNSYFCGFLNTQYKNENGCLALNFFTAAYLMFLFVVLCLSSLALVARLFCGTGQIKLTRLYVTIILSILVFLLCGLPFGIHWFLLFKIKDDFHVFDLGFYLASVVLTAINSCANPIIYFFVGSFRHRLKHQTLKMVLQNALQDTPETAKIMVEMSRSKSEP
Method: as §1, §2
HEK293 cells stably expressing either MRGPRA1, MRGPRX4, and MRGRPC11 were seeded in poly-D-lysine-coated 96-well plates at 10,000 cells/well. Cells were loaded with Fura 2-AM, washed twice, and maintained in CIB. Haem metabolites were freshly dissolved in DMSO in dim light and then diluted into a buffer comprised of 20 mM Tris and 150 mM NaCl at pH 8.8. Potential changes in pH were evaluated prior to each experiment. EC50 values were determined from dose-responses performed in triplicate, repeated 2-4 times. To determine potential antagonism by QWF against bilirubin, cells were treated with varying doses of QWF for 1 min in CIB prior to application of agonist.

MRGPRX4 [4] = target: T1, MRGPRX4; experiment: Microscale thermophoresis binding assay, MRGPRX4; parameters: expressed in transfected cells; whole cells or crude membrane fraction; details: FIG. 24J
Method: (§3) Binding isotherms for MRGPRA1, MRGPRX4, and MRGRPC11 towards various ligands were determined by microscale thermophoresis with the NanoTemper monolith NT.115 instrument^27. Ligands were pre-incubated with 10 μM of the GFP-tagged receptor of interest for 5 minutes at room temperature in binding buffer (20 mM Tris and 150 mM NaCl at pH 8.8). Receptors were crudely purified as a membrane fraction from cells stably expressing the receptor^45. Haem metabolites were freshly dissolved in 0.1 M NaOH in dim light and then diluted into assay buffer. Lyophilized BAMS-22 was dissolved in binding buffer. The pH of each ligand was evaluated prior to incubation with a receptor. Samples were loaded into NT.115 Hydrophobic-Treated Capillaries from NanoTemper. Microscale thermophoretic experiments were executed using 20% LED power and 15% MST power. KDs were calculated using the law of mass action with data from three independent experiments. Binding between bilirubin and receptors was evaluated purely thermophoretically, whereas binding between BAMS-22 and MRGPRC11 was evaluated by T-Jump. Samples with dramatic deviations in initial fluorescence were excluded.

MrgprA1 [5] = target: T2, MrgprA1; experiment: Microscale thermophoresis binding assay, MRGPRA1; details: FIG. 24E
Method: as §3

mice [6] = experiment: Acute itch behaviour after injection (scratching bouts); format: in vivo, mouse
MrgprA1 [7] = target: T2, MrgprA1; experiment: FLIPR calcium assay (Flexstation3), HEK cells stably expressing MrgprA1; format: cell-based; details: MrgprA1 HEK cells, FIG. 17B
Method: EC50s were calculated using HEK cells stably expressing either MrgprA1 or MrgprX4. Cells were loaded with FLIPR calcium imaging dye, and a Flexstation3 machine (Molecular Devices) was used for reading changes in fluorescence. Wells were run in triplicate, and all values from each plate were normalized to the highest responding well. […] The x-axis depicts a modified logarithmic scale. […] FIG. 18B is a graph depicting the EC50 for MrgprX4 for bilirubin is approximately 3 μM.

mouse Mrgpra1 = target: T3, mouse Mrgpra1 (Mus musculus, UniProt Q91WW5); experiment: Ca2+ imaging / EC50 determination in HEK293 cells expressing Mrgpra1; format: cell-based; details: Mrgprs individually expressed in HEK293 cells
T3 construct: expressed in transfected cells; host or cells: HEK293
T3 sequence (Q91WW5 1-304): T2 sequence (Q91WW5 1-304)
Method: (§4) Lamotrigine (LTG), allopurinol, carbamazepine and oxcarbazepine (all from Sigma) were prepared fresh on the day of the experiment. These drugs were dissolved into dimethyl sulfoxide (DMSO) first, and then were diluted at least 10000× into calcium imaging buffer before use. The final concentrations of drugs for each experiment were indicated in the corresponding figure legend.
(§5) In initial experiments, HEK293 cells were plated on 100 μg/ml poly-D-lysine coated glass cover slips, and transiently transfected with vector containing Mrgprs gene, after 24-48 hours of culture, cells were loaded with Fura 2-acetomethoxy ester calcium indicator (0.5 μM, Molecular Probes) along with pluronic F-127 dispersing agent (0.1%, Molecular Probes) for 30 minutes in the dark at 37° C., then washed with calcium imaging buffer (CIB; NaCl 125 mM, KCl 3 mM, CaCl2 2.5 mM, MgCl2 0.6 mM, HEPES 10 mM, glucose 20 mM, NaHCO3 1.2 mM, sucrose 20 mM, brought to pH 7.4 with NaOH). Drugs were added to Fura 2-loaded cells and intracellular free calcium was measured using 340 nm and 380 nm excitation wavelengths with emission measured at 520 nm with a microscope based imaging system (Nikon Eclipse TE200). Changes in emission fluorescence ratios at 340/380 nm excitation were continuously monitored at 1 second intervals. Later, experiments were performed using Mrgpra1-GFP, Mrgprc11-GFP and MRGPRX4-GFP stable cell lines to confirm the findings obtained from the transiently expressing cells.
(§6) Mrgpra1 or both wild-type and mutant MRGPRX4 stably expressed HEK cells were plated overnight in 100 μl culture media on 96-well plates. […] After 1 hour of incubation at 37° C., cells were allowed to recover for 10 minutes in the dark at room temperature prior to performing intracellular calcium mobilization assay in a FLEXSTATION® multi-mode plate reader (Molecular Devices). […] Responses were determined by subtracting the minimum signal (at the basal level before adding the drug) from the maximum signal (obtained after stimulating with the drug). […]

129S1/SvImJ mice = experiment: SJS/TEN mouse model (daily oral gavage of causative drug); format: in vivo; details: mouse, in vivo
Method: Eight-to-ten week old male mice were orally gavaged with either causative drugs (LTG, allopurinol, oxcarbazepine) suspended in saline or saline once daily. The dosage was based on milligrams per kilogram of animal's body weight as indicated (for example, LTG 50 mg kg^−1 body weight). Skin, eyes, and mucosa, survival, body weight, physical and gross appearances (particularly on the eyes, mucosa and skins) were monitored every day.
The animals were deeply anesthetized with pentobarbital and transcardially perfused with 20 ml 0.1 M cold PBS (pH 7.4) followed with 25 ml of cold 4% paraformaldehyde (PFA). Paw skin, eyelid, spleen, lymph nodes were dissected out. postfixed in 4% PFA for more than two hours, and cryoprotected in a 20% followed by 30% sucrose solution for 24 hours each at 4° C. Tissue samples were embedded in the optimal cutting temperature (OCT) and frozen before being serially cut into 20 μm sections and placed onto slides. Hematoxylin and eosin (H&E) staining was performed using standard procedures according to the manufacturer's instruction VITROVIEW™ H&E Stain Kit). To quantify amount of apoptotic cells, terminal deoxynucleotidyl transferase dUTP nick end labeling (TUNEL) assay, a method for detecting DNA fragmentation that results from apoptotic cells by labeling the terminal end of nucleic acids, was performed by following the protocol of Apo-BrdU DNA Fragmentation Assay Kit (Biovision). To estimate the total cell number in tissue, all nuclei were stained with propidium iodide. Digital photographs were captured under confocal fluorescent microscopy at x200 magnification (Zeiss LSM 700). The number of TUNEL-positive nuclei were counted and reported as a percentage over the number of total nuclei observed in the skin's epidermis layer.

MRGPRX4 [8] = target: T1, MRGPRX4; experiment: Ca2+ imaging / EC50 determination in HEK293 cells expressing MRGPRX4; format: cell-based; parameters: expressed in transfected cells; details: Mrgprs individually expressed in HEK293 cells
Method: as §4, §5, §6

[9] = target: human MRGPRX3 (Mas-related G-protein coupled receptor member X3) (human) (UniProt Q96LB0); experiment: cell-based or functional assay
[10] = 10 μM pre-incubated 30 minutes, 50 μM bilirubin

T1 sequence (Q96LA9 whole entry): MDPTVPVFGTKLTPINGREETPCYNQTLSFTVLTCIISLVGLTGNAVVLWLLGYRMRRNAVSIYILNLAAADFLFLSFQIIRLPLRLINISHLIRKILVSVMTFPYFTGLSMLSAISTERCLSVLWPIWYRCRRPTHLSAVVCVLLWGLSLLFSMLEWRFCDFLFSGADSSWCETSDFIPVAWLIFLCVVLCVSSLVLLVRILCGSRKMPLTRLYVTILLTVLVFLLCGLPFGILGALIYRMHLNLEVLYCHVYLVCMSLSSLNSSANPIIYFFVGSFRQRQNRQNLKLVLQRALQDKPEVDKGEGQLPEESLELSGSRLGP
Sequence of human MRGPRX3 (Mas-related G-protein coupled receptor member X3) (human) (Q96LB0 whole entry): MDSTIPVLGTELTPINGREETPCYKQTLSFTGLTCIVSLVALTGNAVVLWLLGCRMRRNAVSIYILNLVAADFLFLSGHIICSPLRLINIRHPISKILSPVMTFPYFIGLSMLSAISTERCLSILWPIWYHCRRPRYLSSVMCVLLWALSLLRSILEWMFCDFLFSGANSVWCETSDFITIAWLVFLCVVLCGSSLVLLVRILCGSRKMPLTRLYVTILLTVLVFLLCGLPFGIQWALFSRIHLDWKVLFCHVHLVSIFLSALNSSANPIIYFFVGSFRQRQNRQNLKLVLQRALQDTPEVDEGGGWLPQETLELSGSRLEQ

Molecule: S=C=Nc1cccc2ccccc12 [ANIT, α-naphthyl isothiocyanate]
reduction in scratching bouts, Cluster KO versus WT littermates (mice [1]; 25 mg/kg ANIT per os daily): ~46%

Molecule: C=CC1=C(C)/C(=C/c2[nH]c(Cc3[nH]c(/C=C4\NC(=O)C(C)=C4C=C)c(C)c3CCC(=O)NCCS(=O)(=O)O)c(CCC(=O)NCCS(=O)(=O)O)c2C)NC1=O [Conjugated bilirubin, bilirubin ditaurate]
activation of MRGPRX4-expressing cells (calcium) (MRGPRX4 [2]): activated
activation of MRGPRA1-expressing cells (calcium) (MrgprA1 [3]): activated
binding to MRGPRX4 (MRGPRX4 [4]): lower affinities compared to bilirubin
binding to MRGPRA1 (MrgprA1 [5]): lower affinities compared to bilirubin

Molecule: CC(C)(C)OC(=O)N[C@@H](CCC(N)=O)C(=O)N[C@H](Cc1cn(C=O)c2ccccc12)C(=O)N[C@@H](Cc1ccccc1)C(=O)OCc1ccccc1 [QWF, BOC-GLN-D-(FORMYL)TRP-PHE-BENZYLESTER] (Boc-Gln-[dW](For)-Phe-OBn)
effect on pruritus associated with bilirubin (mice [6]; 0.25 mg/kg co-injected with bilirubin): significantly alleviated pruritus
effect on chloroquine-MRGPRA3 associated itch (mice [6]; co-injected with chloroquine): did not attenuate
scratching versus vehicle-treated animals (mice [1]; ANIT-dosed WT animals, 1 mg/kg i.p. thirty minutes prior to behavioral analysis): scratched significantly less
plasma levels of total bilirubin, AST, ALT, or ALP (mice [1]; mouse, in vivo, ip, 1 mg/kg): did not change

Molecule: COc1ccc2c(c1)CC[C@@H]1[C@@H]2CC[C@]2(C)[C@@H](NCCCCCCN3C(=O)C=CC3=O)CC[C@@H]12 [U73122]
effect on bilirubin-induced calcium responses, MRGPRX4 (MRGPRX4 [2]; [10]): inhibited
effect on bilirubin-induced calcium responses, MRGPRA1 (MrgprA1 [3]; [10]): abolished
effect on bilirubin calcium influx (MrgprA1 [7]): blocked the calcium influx

More lines, main results first:

activation of MRGPRX4-expressing cells (calcium) (MRGPRX4 [2]): no effect
activation of MRGPRA1-expressing cells (calcium) (MrgprA1 [3]): failed to activate
binding to MRGPRX4 (MRGPRX4 [4]): did not bind
binding to MRGPRA1 (MrgprA1 [5]): did not bind
Molecule: C=CC1=C(C)c2cc3[n-]c(cc4nc(cc5[n-]c(cc1n2)c(C)c5C=C)C(C)=C4CCC(=O)O)c(CCC(=O)O)c3C.[Cl-].[Fe+3] [haemin]
scratching / itch elicited by injection (mice [6]; WT mice): did not induce scratching

activation of mouse Mrgpra1 (Ca2+ imaging) (mouse Mrgpra1): specifically activated
eye manifestation (129S1/SvImJ mice): can also induce eye manifestation
activation of human MRGPRX4 (Ca2+ imaging) (MRGPRX4 [8]): specifically activated
Molecule: NC(=O)N1c2ccccc2CC(=O)c2ccccc21 [oxcarbazepine]

percentage of primary human keratinocytes that responded to hBD3 (Ca^2+), after siRNA knock-down of MRGPRX3 [9]: < 20%
percentage of primary human keratinocytes that responded to hBD3 (Ca^2+), before MRGPRX3 knock-down [9]: > 80%
Molecule: synthetic human Beta-defensin 3 (hBD3) (from UniProt P81534 23-67) (peptide)
